Values quoted from earlier work in patent US20110052686A1, “MODIFIED RELEASE LAMOTRIGINE TABLETS” (RANBAXY LABORATORIES LIMITED, priority 2009, published 2011).

Conditions: oral administration

With `Nc1nnc(-c2cccc(Cl)c2Cl)c(N)n1` [Lamotrigine, 3,5-diamino-6-(2,3-dichlorophenyl)-1,2,4-triazine] as the molecule, how does the “effect of food on bioavailability” value read?
The value was “not affected by food”.

What about the first-pass metabolism of the same molecule?
The first-pass metabolism was “negligible first-pass metabolism”.

And the “time of peak plasma concentrations following drug administration” value?
Its value is 1.4 to 4.8 h.
